{
  "source": "patent US20030104507A1",
  "about": "“Method for detection of ATP” (priority 2001, published 2003)",
  "test_system": "ATPase activity endogenous to L929 cell lysate",
  "assay": "Detergent inhibition of ATPase endogenous to L929 cell lysate (ATP remaining by luciferase luminescence, 22° C.)",
  "type": "biochemical",
  "design": "key to Relative ATPase Activity, slope det/slope lysate: slope with detergent / slope without; ≥1.0 = 100% activity, 0.5 = 50%",
  "description": "Three separate detergents in each of four detergent classes were tested: anionic [SDS (Sodium dodecyl sulfate), Bioterge (an α olefin sulfate), and sodium deoxycholate], nonionic [TRITON X-100, BigCHAP (N,N-bis(3-D-Gluconamidopropyl)cholamide) and THESIT (polyethylene glycol 400 dodecyl ether, Fluka, #88315)], cationic [BDDABr (Benzyldimethyldodecylammonium bromide), CTAB (Cetyltrimethylammonium bromide), and DTAB (dodecyltrimethylammonium bromide)] and zwitterionic [CHAPS (3[(3-Cholamidopropyl)dimethylammonio]propanesulfonic acid), CHAPSO (3-([3-Cholamidopropyl]dimethylammonio)-2-hydroxy-1-propanesulfonate), and Sulfobetaine 3-10 ([…]-N,N-dimethyl-3-ammonio-1-propanesulfonate)]. Detergents were obtained from Sigma, Fluka and Aldrich.\nL929 cells (ATCC CCL-1; 1.5×10^5 cells/ml) in F12/DMEM (Hyclone, SH30023) containing 10% horse serum (Hyclone, SH30074) were frozen and thawed for four cycles to create a cell lysate. Then 50 μl of stock detergent solutions [10%, 5.0%, 1.0%, and 0.5% (w/v)] were separately added to 450 μl cell lysate, creating a final detergent concentration in the cell lysate sample of 1.0%, 0.5%, 0.1%, and 0.05%, respectively (these percentage values are those used in Tables D and E herein below). Control samples contained either lysate only or 1.0 μM ATP in 15 mM HEPES buffer (pH 7.5). All samples were incubated at 22° C. (room temperature) for the duration of the experiment.\nAt various timepoints, 20 μl from each sample/detergent mixture was added to a 96-well luminometer plate in triplicate, and then 100 μl of a solution (“luciferase-luciferin” or “L/L reagent”) containing 25 mM HEPES buffer (pH 7.5), 40 μg luciferase enzyme LucPpe2m146 (Promega, E140), 100 μM luciferin (Promega), and 10 mM MgSO4 was added to each well. The L/L reagent was stored at 4° C. for the duration of the experiment and then allowed to reach ambient temperature just before assaying. After mixing the contents of the plate, light output was measured with a Dynex MLX microtiter plate luminometer (Chantilly, Va.), 0.5 second reads per well with the first measurement taken five minutes after the detergent solution was combined with the sample. The average relative light units and the timepoint at which it was measured (rlu; Table D) and percent of remaining luciferase activity at the timepoint (Table E) are reported; controls were run with each set of experimental conditions as indicated. The cationic and anionic detergents were assayed on one day with one set of controls. The zwitterionic and nonionic detergents were assayed on a separate day with a separate set of controls. The DTAB at 0.5% was assayed on both days (1 and 2).\nThe experiment was performed as detailed in Example 1. The average relative light unit values and the percent of ATP remaining values are listed below in Table F and G respectively.\nThe log of the percent of ATP remaining after original timepoint values from Table E and Table G were plotted on the y axis against time (in minutes) on the x axis. The slope of the line generated by these values in the presence of detergent was divided by the slope of the line generated by the values in the absence of detergent (lysate control) resulting in the Relative ATPase Activity values listed below in Table H.\nA relative activity value of 1.0 or greater indicates 100% cellular ATPase activity at the concentration of detergent tested. A relative activity value of 0.5 indicates a two-fold (or 50%) decrease in the level of cellular ATPase activity at the concentration of detergent tested when compared to the ATPase activity level in the absence of the detergent. A relative activity value of 0.2 indicates a five-fold (or 80%) decrease in the level of cellular ATPase activity at the concentration of detergent tested when compared to the ATPase activity level in the absence of the detergent.",
  "data": [
    {"substance": "TRITON X-100", "values": [
      {"measurement": "Average Relative Light Unit Values", "setting": "0.05% detergent, 5 min", "result": 6160.71, "unit": "rlu"},
      {"measurement": "Percent ATP Remaining", "setting": "0.05% detergent, 5 min", "result": 100, "unit": "%"},
      {"measurement": "Average Relative Light Unit Values", "setting": "0.05% detergent, 75 min", "result": 1964.17, "unit": "rlu"},
      {"measurement": "Percent ATP Remaining", "setting": "0.05% detergent, 75 min", "result": 31.9, "unit": "%"},
      {"measurement": "Average Relative Light Unit Values", "setting": "0.05% detergent, 169 min", "result": 822.48, "unit": "rlu"},
      {"measurement": "Percent ATP Remaining", "setting": "0.05% detergent, 169 min", "result": 13.4, "unit": "%"},
      {"measurement": "Average Relative Light Unit Values", "setting": "0.05% detergent, 222 min", "result": 303.73, "unit": "rlu"},
      {"measurement": "Percent ATP Remaining", "setting": "0.05% detergent, 222 min", "result": 4.9, "unit": "%"},
      {"measurement": "Average Relative Light Unit Values", "setting": "0.05% detergent, 260 min", "result": 147.48, "unit": "rlu"},
      {"measurement": "Percent ATP Remaining", "setting": "0.05% detergent, 260 min", "result": 2.4, "unit": "%"},
      {"measurement": "Relative ATPase Activity, slope det/slope lysate", "setting": "0.05 percent detergent", "result": 1.228},
      {"measurement": "Slope (log percent ATP remaining vs time in minutes)", "setting": "0.05 percent detergent", "result": "−0.0065"},
      {"measurement": "Average Relative Light Unit Values", "setting": "0.1% detergent, 5 min", "result": 6837.20, "unit": "rlu"},
      {"measurement": "Percent ATP Remaining", "setting": "0.1% detergent, 5 min", "result": 100, "unit": "%"},
      {"measurement": "Average Relative Light Unit Values", "setting": "0.1% detergent, 75 min", "result": 3004.57, "unit": "rlu"},
      {"measurement": "Percent ATP Remaining", "setting": "0.1% detergent, 75 min", "result": 43.9, "unit": "%"},
      {"measurement": "Average Relative Light Unit Values", "setting": "0.1% detergent, 169 min", "result": 1643.05, "unit": "rlu"},
      {"measurement": "Percent ATP Remaining", "setting": "0.1% detergent, 169 min", "result": 24.0, "unit": "%"},
      {"measurement": "Average Relative Light Unit Values", "setting": "0.1% detergent, 222 min", "result": 801.38, "unit": "rlu"},
      {"measurement": "Percent ATP Remaining", "setting": "0.1% detergent, 222 min", "result": 11.7, "unit": "%"},
      {"measurement": "Average Relative Light Unit Values", "setting": "0.1% detergent, 260 min", "result": 448.93, "unit": "rlu"},
      {"measurement": "Percent ATP Remaining", "setting": "0.1% detergent, 260 min", "result": 6.6, "unit": "%"},
      {"measurement": "Relative ATPase Activity, slope det/slope lysate", "setting": "0.10 percent detergent", "result": 0.889},
      {"measurement": "Slope (log percent ATP remaining vs time in minutes)", "setting": "0.10 percent detergent", "result": "−0.0047"},
      {"measurement": "Average Relative Light Unit Values", "setting": "0.5% detergent, 5 min", "result": 6106.61, "unit": "rlu"},
      {"measurement": "Percent ATP Remaining", "setting": "0.5% detergent, 5 min", "result": 100, "unit": "%"},
      {"measurement": "Average Relative Light Unit Values", "setting": "0.5% detergent, 75 min", "result": 1880.98, "unit": "rlu"},
      {"measurement": "Percent ATP Remaining", "setting": "0.5% detergent, 75 min", "result": 30.8, "unit": "%"},
      {"measurement": "Average Relative Light Unit Values", "setting": "0.5% detergent, 169 min", "result": 871.01, "unit": "rlu"},
      {"measurement": "Percent ATP Remaining", "setting": "0.5% detergent, 169 min", "result": 14.3, "unit": "%"},
      {"measurement": "Average Relative Light Unit Values", "setting": "0.5% detergent, 222 min", "result": 378.58, "unit": "rlu"},
      {"measurement": "Percent ATP Remaining", "setting": "0.5% detergent, 222 min", "result": 6.2, "unit": "%"},
      {"measurement": "Average Relative Light Unit Values", "setting": "0.5% detergent, 260 min", "result": 195.42, "unit": "rlu"},
      {"measurement": "Percent ATP Remaining", "setting": "0.5% detergent, 260 min", "result": 3.2, "unit": "%"},
      {"measurement": "Relative ATPase Activity, slope det/slope lysate", "setting": "0.50 percent detergent", "result": 1.117},
      {"measurement": "Slope (log percent ATP remaining vs time in minutes)", "setting": "0.50 percent detergent", "result": "−0.0059"},
      {"measurement": "Average Relative Light Unit Values", "setting": "1.0% detergent, 5 min", "result": 6073.78, "unit": "rlu"},
      {"measurement": "Percent ATP Remaining", "setting": "1.0% detergent, 5 min", "result": 100, "unit": "%"},
      {"measurement": "Average Relative Light Unit Values", "setting": "1.0% detergent, 75 min", "result": 1774.10, "unit": "rlu"},
      {"measurement": "Percent ATP Remaining", "setting": "1.0% detergent, 75 min", "result": 29.2, "unit": "%"},
      {"measurement": "Average Relative Light Unit Values", "setting": "1.0% detergent, 169 min", "result": 839.14, "unit": "rlu"},
      {"measurement": "Percent ATP Remaining", "setting": "1.0% detergent, 169 min", "result": 13.8, "unit": "%"},
      {"measurement": "Average Relative Light Unit Values", "setting": "1.0% detergent, 222 min", "result": 331.95, "unit": "rlu"},
      {"measurement": "Percent ATP Remaining", "setting": "1.0% detergent, 222 min", "result": 5.5, "unit": "%"},
      {"measurement": "Average Relative Light Unit Values", "setting": "1.0% detergent, 260 min", "result": 174.89, "unit": "rlu"},
      {"measurement": "Percent ATP Remaining", "setting": "1.0% detergent, 260 min", "result": 2.9, "unit": "%"},
      {"measurement": "Relative ATPase Activity, slope det/slope lysate", "setting": "1.00 percent detergent", "result": 1.152},
      {"measurement": "Slope (log percent ATP remaining vs time in minutes)", "setting": "1.00 percent detergent", "result": "−0.0061"}
    ]}
  ]
}
